Experimental data taken from US20240294551A1 (AMGEN INC., priority 2022, published 2024).
Where a name gives a salt, the structure may show the parent alone. Read-outs that look alike come from different tables or passages of the source.

How the values were obtained:
[1] = system: Phosphorylation of ERK1/2 in AsPC-1 cells; test: Phospho-ERK1/2 MSD Assay; format: cell-based, human; conditions: Homo sapiens, ASPC1, 2 h
Outline: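 Read-out: MSD electrochemiluminescent detection of phosphorylated ERK1/2 in whole-cell lysates, fitted to a 4-parameter logistic curve for IC50. Prior to lysis, AsPC-1 cells (25,000 per well) received a 2 h compound dose-response at 37 °C.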

[2] = system: AsPC-1 cells; test: AsPC-1 CTG Assay (CellTiter-Glo cell viability); format: cell-based, human; conditions: Homo sapiens, ASPC1, 72 h, first value of the cell, read-out: G12D/C/V Cell Proliferation CTG (72 h) AsPC-1
Outline: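 IC50 values derive from 4-parameter logistic fits of CellTiter-Glo luminescence, expressed relative to DMSO. Compound dilution series were applied to overnight-seeded AsPC-1 or SW620 cells (RPMI 1640, 10% FBS) for 72 h at 37 °C, 5% CO2.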

[3] = target: His-tagged KRAS G12D protein (Homo sapiens (Human), UniProt P01116, G12D); test: KRAS G12D TR-FRET Assay; format: binding
Chain of His-tagged KRAS G12D protein (P01116 other isoform, or with tags, fused parts or gaps G12D): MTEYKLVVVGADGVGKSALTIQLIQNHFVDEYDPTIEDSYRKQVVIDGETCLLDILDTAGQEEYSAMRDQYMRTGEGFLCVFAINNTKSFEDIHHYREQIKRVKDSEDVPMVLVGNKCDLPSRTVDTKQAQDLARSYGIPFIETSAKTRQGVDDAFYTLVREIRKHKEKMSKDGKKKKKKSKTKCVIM
Outline: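 Each incubation ran at room temperature: enzyme with compound for 30 minutes, peptide for one hour, and detection reagents (0.4 nM europium anti-6×His, 5 nM streptavidin-d2) for one hour more. Protein and peptide stocks were each diluted to 20 nM before addition.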

[4] = target: GDP-bound KRAS protein (aa 1-169), containing both G12D and C118A amino acid substitutions (Homo sapiens (Human), UniProt P01116, C118A/G12D); test: KRAS G12D Coupled Nucleotide Exchange Assay; format: biochemical
Chain of GDP-bound KRAS protein (aa 1-169), containing both G12D and C118A amino acid substitutions (P01116 other isoform, or with tags, fused parts or gaps G12D/C118A): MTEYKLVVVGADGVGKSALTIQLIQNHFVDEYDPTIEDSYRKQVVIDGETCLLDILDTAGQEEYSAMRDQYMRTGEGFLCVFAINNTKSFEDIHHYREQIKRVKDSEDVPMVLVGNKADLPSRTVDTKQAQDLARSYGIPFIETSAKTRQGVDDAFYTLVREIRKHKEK

[5] = read-out: 2 h p-ERK (AsPC-1 cells), IC50
[6] = read-out: KRAS G12D Binding IC50
[7] = read-out: KRAS G12D Coupled Exchange IC50
[8] = read-out: 2 h p-ERK (AsPC-1 cells)
[9] = TR-FRET, read-out: KRAS G12D Binding
[10] = 2 hours compound pre-incubation, read-out: KRAS G12D Coupled Exchange

SMILES	IC50 [1, 5]	IC50 ([2]; AsPC-1, 72 h)	IC50 [3, 6]	IC50 [4, 7]	IC50 [1, 8]	IC50 ([2]; AsPC-1 cells (G12D), 72 h)	IC50 [3, 9]	IC50 [4, 10]
O=C1CCCc2c(F)ccc3cc(O)cc(c23)-c2ncc3c(nc(OC[C@@]45CCCN4C[C@H](F)C5)nc3c2F)N2CCC[C@H](C2)O1 [Example 41, (15R)-22,31-Difluoro-8-(((2R,7aS)-2-fluorotetrahydro-1H-pyrrolo[1,2-a]pyrrol-7a(5H)-yl)methoxy)-27-hydroxy-16-oxa-3,7,9,11-tetraazahexacyclo[19.7.1.1˜2,6˜.1˜11,15˜.0˜5,10˜.0˜25,29˜]hentriaconta-1(28),2(31),3,5,7,9,21,23,25(29),26-decaen-17-one 2,2,2-trifluoroacetate salt]	3 nM	47 nM	3 nM	2 nM	–	–	–	–
O=C1C[C@H]2CN(CCO2)c2nc(OC[C@@]34CCCN3C[C@H](F)C4)nc3c(F)c(ncc23)-c2c(c(Cl)cc3[nH]ncc23)CCCO1 [Example 79, (17S)-9-chloro-30-fluoro-24-(((2R,7aS)-2-fluorotetrahydro-1H-pyrrolo[1,2-a]pyrrol-7a(5H)-yl)methoxy)-14,18-dioxa-5,6,21,23,25,29-hexaazahexacyclo[24.3.1.1~17,21~.0~2,10~.0~3,7~.0~22,27~]hentriaconta-1(30),2,4,7,9,22,24,26,28-nonaen-15-one]	4 nM	60 nM	4 nM	3 nM	–	–	–	–
Cc1cc2[nH]ncc2c2c1CCCC(=O)OC[C@@H]1CCCN(C1)c1nc(OC[C@@]34CCCN3C[C@H](F)C4)nc3c(F)c-2ncc13 [Example 106]	29 nM	270 nM	4 nM	1 nM	–	–	–	–
O=C1CCCc2c(Cl)cc3[nH]ncc3c2-c2ncc3c(nc(OC[C@@]45CCCN4C[C@H](F)C5)nc3c2F)N2CCCC3(CC(C3)N1)C2 [Example 274]	1780 nM	5000 nM	32 nM	16 nM	–	–	–	–
Fc1c2ncc3c(nc(OC[C@@]45CCCN4C[C@H](F)C5)nc13)N1CCOCC(C1)Cn1ncc(n1)/C=C\c1c(Cl)cc3[nH]ncc3c1-2 (stereo partly drawn) [Example 258, (20Z)-18-chloro-34-fluoro-4-(((2R,7aS)-2-fluorotetrahydro-1H-pyrrolo[1,2-a]pyrrol-7a(5H)-yl)methoxy)-29-oxa-1,3,5,9,14,15,24,25,33-nonaazaheptacyclo[25.4.1.1~6,10~.1~22,25~.0~2,7~.0~11,19~.0~12,16~]tetratriaconta-2,4,6,8,10(34),11,13,16,18,20,22(33),23-dodecaene]	82.9 nM	996 nM	13 nM	6 nM	–	–	–	–
Cc1cc2[nH]ncc2c2c1CCCCC(=O)N[C@]1(C)CCCCN(C1)c1nc(OC[C@@]34CCCN3C[C@H](F)C4)nc3c(F)c-2ncc13 [Example 280, (26R)-32-fluoro-4-(((2R,7aS)-2-fluorotetrahydro-1H-pyrrolo[1,2-a]pyrrol-7a(5H)-yl)methoxy)-18,26-dimethyl-1,3,5,9,14,15,25-heptaazahexacyclo[24.4.1.1~6,10~.0~2,7~.0~11,19~.0~12,16~]dotriaconta-2,4,6,8,10(32),11,13,16,18-nonaen-24-one]	99 nM	475 nM	10 nM	3 nM	–	–	–	–
Cc1cc2[nH]ncc2c2c1CCCOC(=O)O[C@@H]1CCCCN(C1)c1nc(OC[C@@H]3CCCN3C)nc3c(F)c-2ncc13 [Example 206, (26R)-32-fluoro-18-methyl-4-(((2S)-1-methyl-2-pyrrolidinyl)methoxy)-23,25-dioxa-1,3,5,9,14,15-hexaazahexacyclo[24.4.1.1~6,10~.0~2,7~.0~11,19~.0~12,16~]dotriaconta-2,4,6,8,10(32),11,13,16,18-nonaen-24-one]	211 nM	2230 nM	14 nM	9 nM	–	–	–	–
C[C@@]12COCCN(C1)c1nc(OC[C@H]3CC[C@@H]4COCCN43)nc3c(F)c(ncc13)-c1c(c(Cl)cc3[nH]ncc13)CCCOC(=O)O2 [Example 308, (26S)-18-chloro-32-fluoro-4-((6R,8aR)-hexahydro-1H-pyrrolo[2,1-c][1,4]oxazin-6-ylmethoxy)-26-methyl-23,25,28-trioxa-1,3,5,9,14,15-hexaazahexacyclo[24.4.1.1~6,10~.0~2,7~.0~11,19~.0~12,16~]dotriaconta-2,4,6,8,10(32),11,13,16,18-nonaen-24-one]	16.3 nM	22 nM	6 nM	3 nM	–	–	–	–
C[C@@]12COCCN(C1)c1nc(OC[C@@]34CCCN3C[C@H](F)C4)nc3cc(ncc13)-c1c(c(Cl)cc3[nH]ncc13)CCCOC(=O)O2 [Example 346, (26S)-18-chloro-4-(((2R,7aS)-2-fluorotetrahydro-1H-pyrrolo[1,2-a]pyrrol-7a(5H)-yl)methoxy)-26-methyl-23,25,28-trioxa-1,3,5,9,14,15-hexaazahexacyclo[24.4.1.1~6,10~.0~2,7~.0~11,19~.0~12,16~]dotriaconta-2,4,6(32),7,9,11,13,16,18-nonaen-24-one]	13.4 nM	297 nM	5 nM	2 nM	–	–	–	–
O[C@H]1C[C@H]2COCCCCc3c(Cl)cc4[nH]ncc4c3-c3ncc4c(nc(OC[C@@]56CCCN5C[C@H](F)C6)nc4c3F)N(C1)C2 [Example 407, (17R,19S)-9-chloro-30-fluoro-24-(((2R,7aS)-2-fluorotetrahydro-1H-pyrrolo[1,2-a]pyrrol-7a(5H)-yl)methoxy)-15-oxa-5,6,21,23,25,29-hexaazahexacyclo[24.3.1.1˜17,21˜.0˜2,10˜.0˜3,7˜.0˜22,27˜]hentriaconta-1(30),2,4,7,9,22,24,26,28-nonaen-19-ol]	–	–	–	–	2.5 nM	49 nM	6 nM	1 nM
O=C1OC[C@H]2C[C@@H]2c2c(Cl)cc3[nH]ncc3c2-c2ncc3c(nc(OC[C@@]45CCCN4C[C@H](F)C5)nc3c2F)N2CCC[C@H](C2)O1 (mixture of isomers) [Example 113]	109 nM	1180 nM	10 nM	3 nM	–	–	–	–
O=C1CCCCc2c(Cl)cc3[nH]ncc3c2-c2ncc3c(nc(OC[C@@]45CCCN4C[C@H](F)C5)nc3c2F)N2C[C@@H](O)C[C@H](C2)N1 (racemic) [Example 275, (17R,19S)-9-chloro-30-fluoro-24-(((2R,7aS)-2-fluorotetrahydro-1H-pyrrolo[1,2-a]pyrrol-7a(5H)-yl)methoxy)-19-hydroxy-5,6,16,21,23,25,29-heptaazahexacyclo[24.3.1.1~17,21~.0~2,10~.0~3,7~.0~22,27~]hentriaconta-1(30),2,4,7,9,22,24,26,28-nonaen-15-one]	53.1 nM	778 nM	6 nM	3 nM	–	–	–	–
Fc1cc2[nH]ncc2c2c1CCCCOC[C@@H]1CCCCN(C1)c1nc(OC[C@@]34CCCN3C[C@H](F)C4)nc3c(F)c-2ncc13 [Example 239, (26R)-18,32-difluoro-4-(((2R,7aS)-2-fluorotetrahydro-1H-pyrrolo[1,2-a]pyrrol-7a(5H)-yl)methoxy)-24-oxa-1,3,5,9,14,15-hexaazahexacyclo[24.4.1.1~6, 10~.0~2,7~.0~11,19~.0~12,16~]dotriaconta-2,4,6(32),7,9,11,13,16,18-nonaene]	82.9 nM	527 nM	6 nM	5 nM	–	–	–	–
O=C1CCCCc2c(Cl)cc3[nH]ncc3c2-c2ncc3c(nc(OC[C@@]45CCCN4C[C@H](F)C5)nc3c2F)N2CCOCC(C2)C1O (mixture of isomers) [Example 384]	–	–	–	–	22.3 nM	109 nM	10 nM	6 nM
O=C1N[C@H]2C[C@@]3(CCCN(C3)c3nc(OC[C@@]45CCCN4C[C@H](F)C5)nc4c(F)c(ncc34)-c3c(c(Cl)cc4[nH]ncc34)CCO1)C2 [Example 289, 10-chloro-32-fluoro-24-(((2R,7aS)-2-fluorotetrahydro-1H-pyrrolo[1,2-a]pyrrol-7a(5H)-yl)methoxy)-6-oxa-4,13,14,19,23,25,27-heptaazaheptacyclo[25.3.1.1~1,3~.1~18,22~.0~9,17~.0~12,16~.0~21,26~]tritriaconta-9,11,14,16,18(32),19,21,23,25-nonaen-5-one]	110 nM	613 nM	10 nM	6 nM	–	–	–	–
C[C@@H]1C[C@@H](COc2nc3c4cnc(c(F)c4n2)-c2c(c(Cl)cc4[nH]ncc24)CCCOC(=O)O[C@@H]2COCCN3C2)N(C)C1 [Example 328, (26S)-18-chloro-4-(((2S,4R)-1,4-dimethyl-2-pyrrolidinyl)methoxy)-32-fluoro-23,25,28-trioxa-1,3,5,9,14,15-hexaazahexacyclo[24.4.1.1~6,10~.0~2,7~.0~11,19~.0~12,16~]dotriaconta-2,4,6(32),7,9,11,13,16,18-nonaen-24-one]	29 nM	50 nM	5 nM	3 nM	–	–	–	–
